Measured values as given in ChEMBL document CHEMBL1137777, “Design, synthesis, and evaluation of indolinones as triple angiokinase inhibitors and the discovery of a highly specific 6-methoxycarbonyl-substituted indolinone (BIBF 1120)” (J Med Chem, 2009).
Each block holds one compound with its values, some of them ahead of it.

Experiments:
[1] = target: Vascular endothelial growth factor receptor 2 (Homo sapiens, UniProt P35968); experiment: Inhibition of human VEGFR2 expressed in Sf9 cells
HUVEC = experiment: cells; conditions: Homo sapiens, 3 h
Description: Antiangiogenic activity in HUVEC assessed as inhibition of VEGF-induced cell proliferation by [3H]thymidine incorporation assay

HeLa = experiment: Antiangiogenic activity against human HeLa cells assessed as inhibition of cell proliferation by [3H]thymidine incorporation assay; format: functional, cell-based
[2] = Cmax in NMRI nu/nu mouse at 50 mg/kg, po administered as single dose; format: ADME, organism-based; design: dose 50 mg/kg, route oral; conditions: in vivo
[3] = Half life in NMRI nu/nu mouse at 50 mg/kg, po administered as single dose; format: ADME, organism-based; design: dose 50 mg/kg, route oral; conditions: in vivo
[4] = (§1) AUC in NMRI nu/nu mouse at 50 mg/kg, po administered as single dose; format: ADME, organism-based, Plasma; design: dose 50 mg/kg, route oral; conditions: NMRI nu/nu, plasma
[5] = target: Fibroblast growth factor receptor 1 (Homo sapiens, UniProt P11362)
Description: Inhibition of human FGFR1

[6] = target: Platelet-derived growth factor receptor alpha (Homo sapiens, UniProt P16234)
Chain of Platelet-derived growth factor receptor alpha (P16234 whole entry): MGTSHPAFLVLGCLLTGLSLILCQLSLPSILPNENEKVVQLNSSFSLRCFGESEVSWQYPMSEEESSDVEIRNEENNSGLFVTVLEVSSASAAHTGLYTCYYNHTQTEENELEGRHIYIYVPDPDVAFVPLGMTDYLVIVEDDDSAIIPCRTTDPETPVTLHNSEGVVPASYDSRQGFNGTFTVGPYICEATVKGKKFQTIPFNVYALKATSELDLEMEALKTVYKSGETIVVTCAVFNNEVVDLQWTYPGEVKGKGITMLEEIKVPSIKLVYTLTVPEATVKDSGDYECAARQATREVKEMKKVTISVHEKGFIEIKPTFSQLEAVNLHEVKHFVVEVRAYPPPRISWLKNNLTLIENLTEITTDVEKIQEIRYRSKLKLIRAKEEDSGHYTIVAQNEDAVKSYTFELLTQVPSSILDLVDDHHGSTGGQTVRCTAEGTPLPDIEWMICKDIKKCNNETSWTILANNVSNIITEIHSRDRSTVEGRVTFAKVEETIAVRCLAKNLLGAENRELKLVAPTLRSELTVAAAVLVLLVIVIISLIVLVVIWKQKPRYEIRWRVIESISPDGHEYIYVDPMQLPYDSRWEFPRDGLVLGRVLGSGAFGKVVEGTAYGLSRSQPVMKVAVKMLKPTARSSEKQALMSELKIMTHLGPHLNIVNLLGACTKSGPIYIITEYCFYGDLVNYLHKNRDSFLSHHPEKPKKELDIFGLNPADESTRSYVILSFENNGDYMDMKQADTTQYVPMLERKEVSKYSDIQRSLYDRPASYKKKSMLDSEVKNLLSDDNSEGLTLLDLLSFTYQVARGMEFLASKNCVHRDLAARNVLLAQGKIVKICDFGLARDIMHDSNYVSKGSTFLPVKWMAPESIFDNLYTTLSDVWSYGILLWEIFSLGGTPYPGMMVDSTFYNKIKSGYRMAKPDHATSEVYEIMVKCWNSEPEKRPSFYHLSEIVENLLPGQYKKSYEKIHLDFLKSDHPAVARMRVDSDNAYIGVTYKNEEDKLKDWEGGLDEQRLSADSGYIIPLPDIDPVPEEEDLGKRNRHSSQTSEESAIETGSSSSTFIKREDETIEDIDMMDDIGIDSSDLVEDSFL
Description: Inhibition of human PDGFRalpha

[7] = target: Vascular endothelial growth factor receptor 1 (Homo sapiens, UniProt P17948)
Chain of Vascular endothelial growth factor receptor 1 (P17948 whole entry): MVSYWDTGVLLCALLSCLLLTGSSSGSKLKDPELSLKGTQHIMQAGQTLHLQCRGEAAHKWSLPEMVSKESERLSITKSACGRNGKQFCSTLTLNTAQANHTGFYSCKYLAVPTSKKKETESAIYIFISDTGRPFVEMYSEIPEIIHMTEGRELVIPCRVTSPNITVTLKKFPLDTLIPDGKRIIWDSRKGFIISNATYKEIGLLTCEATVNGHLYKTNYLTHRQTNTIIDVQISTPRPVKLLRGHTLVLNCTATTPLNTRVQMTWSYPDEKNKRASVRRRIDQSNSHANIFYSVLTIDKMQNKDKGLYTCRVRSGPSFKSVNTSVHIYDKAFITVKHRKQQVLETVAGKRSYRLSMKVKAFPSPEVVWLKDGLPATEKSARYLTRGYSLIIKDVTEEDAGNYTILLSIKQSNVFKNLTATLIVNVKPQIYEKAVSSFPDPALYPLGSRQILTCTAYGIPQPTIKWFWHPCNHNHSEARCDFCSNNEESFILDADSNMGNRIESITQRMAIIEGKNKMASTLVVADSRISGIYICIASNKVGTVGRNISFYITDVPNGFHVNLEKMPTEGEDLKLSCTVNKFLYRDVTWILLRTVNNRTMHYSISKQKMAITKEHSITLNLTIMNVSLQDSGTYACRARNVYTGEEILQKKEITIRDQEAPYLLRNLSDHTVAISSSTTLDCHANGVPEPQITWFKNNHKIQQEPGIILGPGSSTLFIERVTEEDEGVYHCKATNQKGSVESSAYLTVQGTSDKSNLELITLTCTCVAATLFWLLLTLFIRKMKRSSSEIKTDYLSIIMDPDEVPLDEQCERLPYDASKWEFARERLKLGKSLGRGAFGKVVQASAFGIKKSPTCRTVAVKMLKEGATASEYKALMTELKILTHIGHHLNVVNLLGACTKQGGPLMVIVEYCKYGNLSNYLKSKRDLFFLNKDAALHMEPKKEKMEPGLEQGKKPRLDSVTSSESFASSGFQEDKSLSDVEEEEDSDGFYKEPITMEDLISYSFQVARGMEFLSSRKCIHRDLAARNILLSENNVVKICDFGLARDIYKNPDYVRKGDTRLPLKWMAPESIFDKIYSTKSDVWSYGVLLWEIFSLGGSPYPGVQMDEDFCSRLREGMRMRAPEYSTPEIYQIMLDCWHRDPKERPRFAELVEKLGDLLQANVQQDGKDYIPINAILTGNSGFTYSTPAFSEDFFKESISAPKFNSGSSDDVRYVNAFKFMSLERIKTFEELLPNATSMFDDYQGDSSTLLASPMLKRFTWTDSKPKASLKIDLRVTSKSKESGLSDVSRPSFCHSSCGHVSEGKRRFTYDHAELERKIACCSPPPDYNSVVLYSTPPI
Description: Inhibition of human VEGFR1

[8] = target: Vascular endothelial growth factor receptor 3 (Homo sapiens, UniProt P35916)
Chain of Vascular endothelial growth factor receptor 3 (P35916 whole entry): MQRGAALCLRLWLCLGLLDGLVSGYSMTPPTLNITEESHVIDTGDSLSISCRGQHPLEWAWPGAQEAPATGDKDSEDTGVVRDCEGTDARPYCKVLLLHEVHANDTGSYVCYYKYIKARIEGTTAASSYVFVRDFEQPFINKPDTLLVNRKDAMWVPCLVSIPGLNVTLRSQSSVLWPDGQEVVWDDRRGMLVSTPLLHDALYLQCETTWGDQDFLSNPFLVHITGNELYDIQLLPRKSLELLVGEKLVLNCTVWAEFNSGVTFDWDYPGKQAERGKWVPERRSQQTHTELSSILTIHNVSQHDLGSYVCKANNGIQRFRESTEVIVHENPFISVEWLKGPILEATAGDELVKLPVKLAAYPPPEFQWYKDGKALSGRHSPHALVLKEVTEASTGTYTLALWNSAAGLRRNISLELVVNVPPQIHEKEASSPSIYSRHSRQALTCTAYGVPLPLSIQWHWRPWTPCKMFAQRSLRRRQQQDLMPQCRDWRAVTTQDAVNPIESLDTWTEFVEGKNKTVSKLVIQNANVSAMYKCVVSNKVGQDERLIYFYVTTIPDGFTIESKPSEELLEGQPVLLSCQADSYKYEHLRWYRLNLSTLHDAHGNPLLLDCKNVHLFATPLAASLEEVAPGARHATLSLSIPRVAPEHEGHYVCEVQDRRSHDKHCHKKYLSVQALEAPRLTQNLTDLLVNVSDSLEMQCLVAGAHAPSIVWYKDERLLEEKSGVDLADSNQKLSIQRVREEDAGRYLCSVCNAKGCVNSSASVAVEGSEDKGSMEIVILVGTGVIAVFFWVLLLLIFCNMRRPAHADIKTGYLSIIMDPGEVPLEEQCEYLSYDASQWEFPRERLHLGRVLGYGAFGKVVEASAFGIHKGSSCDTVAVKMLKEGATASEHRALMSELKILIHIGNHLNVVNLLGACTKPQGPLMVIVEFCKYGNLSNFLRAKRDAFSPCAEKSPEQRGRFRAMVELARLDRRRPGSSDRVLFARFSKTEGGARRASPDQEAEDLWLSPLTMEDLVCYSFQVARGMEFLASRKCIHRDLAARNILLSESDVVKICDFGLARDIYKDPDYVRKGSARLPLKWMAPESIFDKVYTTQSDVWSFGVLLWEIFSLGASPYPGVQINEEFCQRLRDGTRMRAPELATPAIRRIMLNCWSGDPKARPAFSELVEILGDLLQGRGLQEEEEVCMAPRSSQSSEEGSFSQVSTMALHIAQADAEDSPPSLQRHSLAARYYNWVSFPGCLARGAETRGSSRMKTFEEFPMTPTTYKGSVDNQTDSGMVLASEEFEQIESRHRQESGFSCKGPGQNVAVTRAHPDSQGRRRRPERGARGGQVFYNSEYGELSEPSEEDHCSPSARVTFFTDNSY
Description: Inhibition of human VEGFR3

[9] = target: Serine/threonine-protein kinase PLK1 (Homo sapiens, UniProt P53350); experiment: Inhibition of human Plk1
Mus musculus = experiment: as §1; format: ADME, organism-based, Plasma; design: dose 50 mg/kg, route oral; conditions: in vivo
[10] = Clearance in NMRI nu/nu mouse at 50 mg/kg, po or 10 mg/kg, iv administered as single dose; format: ADME, organism-based; conditions: in vivo
[11] = Volume of distribution in NMRI nu/nu mouse at 50 mg/kg, po or 10 mg/kg, iv administered as single dose; format: ADME, organism-based; conditions: in vivo
[12] = Oral bioavailability in NMRI nu/nu mouse at 50 mg/kg administered as single dose; format: ADME, organism-based; conditions: in vivo
[13] = Plasma concentration in NMRI nu/nu mouse at 50 mg/kg, po administered as single dose after 2 hrs; format: ADME, organism-based; design: dose 50 mg/kg, route oral
[14] = Plasma concentration in NMRI nu/nu mouse at 50 mg/kg, po administered as single dose after 24 hrs; format: ADME, organism-based; design: dose 50 mg/kg, route oral
Calu-6 [15] = experiment: Antiangiogenic activity against human Calu6 cells assessed as inhibition of cell proliferation by [3H]thymidine incorporation assay; format: functional, cell-based
FaDu [16] = experiment: Antiangiogenic activity against human FADU cells assessed as inhibition of cell proliferation by [3H]thymidine incorporation assay; format: functional, cell-based
FaDu [17] = experiment: Antitumor activity against human FADU cells xenografted NMRI nu/nu mouse assessed as inhibition of mean tumor volume growth at 100 mg/kg, po qd after 21 days relative to control; format: functional
FaDu [18] = experiment: Antitumor activity against human FADU cells xenografted NMRI nu/nu mouse assessed as inhibition of mean tumor volume growth at 50 mg/kg, po qd after 21 days relative to control; format: functional
FaDu [19] = experiment: Antitumor activity against human FADU cells xenografted NMRI nu/nu mouse assessed as inhibition of mean tumor volume growth at 50 mg/kg, po bid after 21 days relative to control; format: functional
FaDu [20] = experiment: Antitumor activity against human FADU cells xenografted NMRI nu/nu mouse assessed as inhibition of mean tumor volume growth at 25 mg/kg, po qd after 21 days relative to control; format: functional
FaDu [21] = experiment: Antitumor activity against human FADU cells xenografted NMRI nu/nu mouse assessed as inhibition of mean tumor volume growth at 10 mg/kg, po qd after 21 days relative to control; format: functional
CAKI-1 [22] = experiment: Antitumor activity against human Caki1 cells xenografted NMRI nu/nu mouse assessed as inhibition of mean tumor volume growth at 100 mg/kg, po qd after 21 days relative to control; format: functional
CAKI-1 [23] = experiment: Antitumor activity against human Caki1 cells xenografted NMRI nu/nu mouse assessed as inhibition of mean tumor volume growth at 50 mg/kg, po qd after 21 days relative to control; format: functional
CAKI-1 [24] = experiment: Antitumor activity against human Caki1 cells xenografted NMRI nu/nu mouse assessed as inhibition of mean tumor volume growth at 10 mg/kg, po qd after 21 days relative to control; format: functional
HT-29 = experiment: Antitumor activity against human HT-29 cells xenografted NMRI nu/nu mouse assessed as inhibition of mean tumor volume growth at 100 mg/kg, po qd after 21 days relative to control; format: functional
SK-OV-3 = experiment: Antitumor activity against human SKOV3 cells xenografted NMRI nu/nu mouse assessed as inhibition of mean tumor volume growth at 50 mg/kg, po qd after 21 days relative to control; format: functional
Calu-6 [25] = experiment: Antitumor activity against human Calu6 cells xenografted NMRI nu/nu mouse assessed as inhibition of mean tumor volume growth at 50 mg/kg, po qd after 21 days relative to control; format: functional
[26] = Antitumor activity against human PAC120 cells xenografted NMRI nu/nu mouse assessed as inhibition of mean tumor volume growth at 100 mg/kg, po qd after 21 days relative to control; format: functional
[27] = target: Insulin-like growth factor 1 receptor (Homo sapiens, UniProt P08069); experiment: Inhibition of human IGFR1
Insulin receptor = Insulin receptor (Homo sapiens, UniProt P06213); experiment: Inhibition of human InsR
[28] = target: Cyclin-dependent kinase 1 (Homo sapiens, UniProt P06493); experiment: Inhibition of human CDK1
[29] = target: Cyclin-dependent kinase 4 (Homo sapiens, UniProt P11802); experiment: Inhibition of human CDK4
[30] = target: Epidermal growth factor receptor (Homo sapiens, UniProt P00533); experiment: Inhibition of human EGFR
[31] = target: Receptor tyrosine-protein kinase erbB-2 (Homo sapiens, UniProt P04626); experiment: Inhibition of human HER2
[32] = Plasma concentration in NMRI nu/nu mouse at 40 mg/kg, po administered as single dose after 2 hrs; format: ADME, organism-based; design: dose 40 mg/kg, route oral
[33] = Plasma concentration in NMRI nu/nu mouse at 40 mg/kg, po administered as single dose after 24 hrs; format: ADME, organism-based; design: dose 40 mg/kg, route oral

Chain of Vascular endothelial growth factor receptor 2 (P35968 whole entry): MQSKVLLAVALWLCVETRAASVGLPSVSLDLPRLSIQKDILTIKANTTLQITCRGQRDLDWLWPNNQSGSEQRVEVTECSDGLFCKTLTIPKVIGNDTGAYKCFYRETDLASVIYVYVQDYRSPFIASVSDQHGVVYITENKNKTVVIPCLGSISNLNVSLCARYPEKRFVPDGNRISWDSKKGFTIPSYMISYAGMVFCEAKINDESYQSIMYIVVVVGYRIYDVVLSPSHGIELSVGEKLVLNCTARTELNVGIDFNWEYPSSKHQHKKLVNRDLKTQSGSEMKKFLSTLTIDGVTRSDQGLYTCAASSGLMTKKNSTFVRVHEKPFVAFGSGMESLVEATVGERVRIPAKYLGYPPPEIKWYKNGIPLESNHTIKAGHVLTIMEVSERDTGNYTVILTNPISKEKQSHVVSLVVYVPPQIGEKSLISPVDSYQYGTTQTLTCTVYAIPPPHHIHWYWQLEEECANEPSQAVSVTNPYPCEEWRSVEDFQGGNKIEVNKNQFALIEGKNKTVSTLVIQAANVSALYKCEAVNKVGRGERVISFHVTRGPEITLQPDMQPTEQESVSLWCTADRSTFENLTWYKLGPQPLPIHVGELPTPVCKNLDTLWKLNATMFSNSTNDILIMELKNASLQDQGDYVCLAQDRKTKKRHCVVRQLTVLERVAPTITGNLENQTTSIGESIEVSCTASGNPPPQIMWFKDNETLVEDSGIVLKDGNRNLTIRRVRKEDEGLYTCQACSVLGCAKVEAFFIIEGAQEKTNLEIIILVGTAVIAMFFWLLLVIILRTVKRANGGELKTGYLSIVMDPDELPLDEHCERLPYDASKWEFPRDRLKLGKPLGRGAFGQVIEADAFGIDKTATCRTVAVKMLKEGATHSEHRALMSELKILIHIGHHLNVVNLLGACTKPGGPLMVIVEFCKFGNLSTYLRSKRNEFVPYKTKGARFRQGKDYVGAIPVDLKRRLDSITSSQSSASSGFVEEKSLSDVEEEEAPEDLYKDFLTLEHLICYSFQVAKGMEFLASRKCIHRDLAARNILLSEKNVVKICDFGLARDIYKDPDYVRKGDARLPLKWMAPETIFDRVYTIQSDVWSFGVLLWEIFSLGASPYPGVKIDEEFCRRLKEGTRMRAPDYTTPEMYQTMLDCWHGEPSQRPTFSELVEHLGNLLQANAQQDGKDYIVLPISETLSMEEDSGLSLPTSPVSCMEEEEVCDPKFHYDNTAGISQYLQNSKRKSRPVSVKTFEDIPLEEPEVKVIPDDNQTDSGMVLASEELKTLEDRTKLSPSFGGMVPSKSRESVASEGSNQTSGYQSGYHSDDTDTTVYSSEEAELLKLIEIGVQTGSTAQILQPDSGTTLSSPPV

SMILES: COC(=O)c1ccc2c(c1)NC(=O)/C2=C(\Nc1ccc(N(C)S(C)(=O)=O)cc1)c1ccccc1
IC50 [1]: 150 nM

SMILES: COC(=O)c1ccc2c(c1)NC(=O)/C2=C(\Nc1cccc(C(=O)N(C)CCCN(C)C)c1)c1ccccc1
IC50 [1]: 248 nM

SMILES: COC(=O)c1ccc2c(c1)NC(=O)/C2=C(\Nc1ccc(CN2CCCCC2)cc1)c1ccccc1
IC50 [1]: 36 nM
EC50 (HeLa): > 1000 nM
Cmax [2]: 952 ng/mL
half-life [3]: 210 min
AUC [4]: 5250 ng·h/mL
IC50 [5]: 71 nM
IC50 [6]: 54 nM
IC50 [7]: 146 nM
IC50 [8]: 32 nM
EC50 (HUVEC): 103 nM

SMILES: COC(=O)c1ccc2c(c1)NC(=O)/C2=C(\Nc1ccc(N(C)C(=O)Cn2ccnc2)cc1)c1ccccc1
IC50 [1]: 6 nM
EC50 (HUVEC): 52 nM

SMILES: COC(=O)c1ccc2c(c1)NC(=O)/C2=C(\Nc1ccc(CN(C)C)cc1)c1ccccc1
IC50 [1]: 64 nM

SMILES: COC(=O)c1ccc2c(c1)NC(=O)/C2=C(\Nc1ccc(N(C)C(=O)CN2CCN(C)CC2)cc1)c1ccccc1 [NINTEDANIB]
IC50 [9]: > 10 µM
EC50 (HeLa): > 1000 nM
Cmax [2]: 1090 nM
half-life [3]: 300 min
AUC (Mus musculus): 2750 nM·h
clearance [10]: 173 mL/min/kg
Vd [11]: 32 L/kg
bioavailability [12]: 45%
concentration at 2 h [13]: 923 nM
concentration at 24 h [14]: 8 nM
EC50 (Calu-6 [15]): > 1000 nM
EC50 (FaDu [16]): > 1000 nM
T/C (FaDu [17]): 11%
T/C (FaDu [18]): 14%
T/C (FaDu [19]): 15%
T/C (FaDu [20]): 46%
T/C (FaDu [21]): 82%
T/C (CAKI-1 [22]): 16%
T/C (CAKI-1 [23]): 25%
T/C (CAKI-1 [24]): 71%
T/C (HT-29): 16%
T/C (SK-OV-3): 19%
T/C (Calu-6 [25]): 24%
T/C [26]: 34%
IC50 (HUVEC): 10 nM

SMILES: COC(=O)c1ccc2c(c1)NC(=O)/C2=C(\Nc1ccccc1)c1ccccc1
IC50 [1]: 8000 nM

SMILES: COC(=O)c1ccc2c(c1)NC(=O)/C2=C(\Nc1ccc(CN(C)C(=O)N(C)C)cc1)c1ccccc1
IC50 [1]: 61 nM
IC50 [27]: > 10 µM
IC50 (Insulin receptor): > 10 µM
IC50 [28]: > 10 µM
IC50 [29]: > 10 µM
IC50 [30]: > 10 µM
IC50 [31]: > 10 µM
IC50 [9]: > 10 µM
EC50 (HeLa): > 1000 nM
concentration at 2 h [32]: 1250 nM
concentration at 24 h [33]: 16 nM
EC50 (Calu-6 [15]): > 1000 nM
EC50 (FaDu [16]): > 1000 nM
T/C (FaDu [17]): 13%
T/C (FaDu [18]): 31%
T/C (FaDu [19]): 11%
IC50 [5]: 50 nM
IC50 [6]: 20 nM
IC50 [7]: 82 nM
IC50 [8]: 10 nM
IC50 (HUVEC): 22 nM

The next lines start with results.

IC50 [1]: 791 nM
SMILES: O=C1Nc2cc(-n3cccc3)ccc2/C1=C(/Nc1ccc(CN2CCCCC2)cc1)c1ccccc1
EC50 (HUVEC): 585 nM

IC50 [1]: 1450 nM
SMILES: CCN(C)C(=O)c1ccc2c(c1)NC(=O)/C2=C(\Nc1ccc(CN2CCCCC2)cc1)c1ccccc1
EC50 (HUVEC): 718 nM

IC50 [1]: > 3000 nM
SMILES: CC(=O)Nc1ccc2c(c1)NC(=O)/C2=C(\Nc1ccc(CN2CCCCC2)cc1)c1ccccc1

IC50 [1]: 132 nM
SMILES: Nc1ccc2c(c1)NC(=O)/C2=C(\Nc1ccc(CN2CCCCC2)cc1)c1ccccc1
EC50 (HUVEC): 414 nM

IC50 [1]: 1750 nM
SMILES: CC(=O)c1ccc2c(c1)NC(=O)/C2=C(\Nc1ccc(CN2CCCCC2)cc1)c1ccccc1

IC50 [1]: 7 nM
EC50 (HeLa): > 1000 nM
SMILES: O=C1Nc2cc([N+](=O)[O-])ccc2/C1=C(/Nc1ccc(CN2CCCCC2)cc1)c1ccccc1
EC50 (HUVEC): 60 nM

IC50 [1]: 1230 nM
SMILES: CC(C)NC(=O)c1ccc2c(c1)NC(=O)/C2=C(\Nc1ccc(CN2CCCCC2)cc1)c1ccccc1
EC50 (HUVEC): 1070 nM

IC50 [1]: 2110 nM
SMILES: O=C1Nc2ccccc2/C1=C(/Nc1ccc(CN2CCCCC2)cc1)c1ccccc1

IC50 [1]: 2100 nM
SMILES: CNC(=O)c1ccc2c(c1)NC(=O)/C2=C(\Nc1ccc(CN2CCCCC2)cc1)c1ccccc1
EC50 (HUVEC): 1910 nM
